Test results published in patent publication EP4332093A1, “SALT CONTAINING PIPERAZINE POLYCYCLIC DERIVATIVE, CRYSTAL FORM THEREOF, PREPARATION METHOD THEREFOR, AND USE THEREOF” (Shanghai Hansoh Biomedical Co., Ltd., priority 2021, dated 2022).
Values after ≈ are worked out from the molar mass of the structure shown. Read-outs that look alike come from different tables or passages of the source.

How the values were obtained:
[1] = target: T1, D3 receptor (Homo sapiens, UniProt P35462); test: cAMP content in cells stably expressing D3 receptors (CHO-D3, forskolin, HTRF); type: cell-based
T1 construct: expressed in transfected cells
Method: Determination of the effect of the compounds of the present invention on cAMP content in cells stably expressing D3 receptors
To determine the activation effect of the compounds on D3 receptor.
• 1. Preparation of the buffer: 1* HBSS + 20mM HEPES + 0.1% BSA + 500 µM IBMX. Complete medium: Ham's F12K + 10% fetal bovine serum +1* penicillin-streptomycin + 400 µg/mL G418. • 2. CHO-D3 cells were cultured in the complete medium at 37°C, 5% CO2. After TrypLE digestion, the cells were resuspended in the experimental buffer, and seeded into a 384-well cell culture plate at a seeding density of 8000 cells per well. • 3. The experimental buffer (1*HBSS, 0.1% BSA, 20 mM HEPES and 500 µM IBMX) was prepared. The compound was diluted with the buffer. 2.5 µL of the compound solution was added to each well, and the plate was incubated at 37°C for 10 minutes. The forskolin was diluted to 8 µM (8*) with the experimental buffer. 2.5 µL of the diluted 8* forskolin was added, and the plate was incubated at 37°C for 30 minutes. cAMP-d2 and Anti-cAMP-Eu^3+ were thawed, and diluted by 20-fold with the lysis buffer. 10 µL of cAMP-d2 was added to the experimental well, followed by the addition of 10 µL of Anti-cAMP-Eu^3+. The reaction plate was centrifuged at 200 g for 30 s at room temperature, and left to stand at 25°C for 1 h. Data was collected using Envision.

[2] = target: 5-HT2A receptor (Homo sapiens, UniProt P28223); test: Calcium ion mobility in cells stably expressing 5-HT2A receptors (Flp-In-CHO-5HT2A, FLIPR); type: cell-based; parameters: expressed in transfected cells; settings: Flp-In-CHO-5HT2A stable pool, 5HT stimulation
Method: Determination of the effect of the compounds of the present invention on calcium ion mobility in cells stably expressing 5-HT2A receptors
To determine the inhibitory effect of the compounds on 5-HT2A receptor.
• 1) Preparation of the buffer: 1 x HBSS, 20 mM HEPES, 2.5 mM probenecid (probenecid was 400 mM stock in 1 M NaOH), 0.1% BSA. Probenecid and BSA were added fresh on the day of the experiment. Experimental buffers include dye buffer and compound dilution buffer. • 2) Cell culture medium: Ham's F-12K + 10% fetal bovine serum + 600 µg/ml hygromycin B + 1* penicillin-streptomycin. Seeding medium: Ham's F-12K + 10% dialysis serum; Assay buffer: 1 x HBSS + 20 mM HEPES; Cell line: Flp-In-CHO-5HT2A stable pool. • 3) The cells were cultured in the complete medium at 37°C, 5% CO2 to 70%-90% confluency. The cells were digested with TrypLE, seeded to the 384-well assay plate at a density of 1 × 10^4 cells/well, and incubated for 16 to 24 hours (at least overnight). • 4) 20X Component A was thawed to room temperature, diluted to 2X working concentration (containing 5mM Probenecid) with the assay buffer, and placed at room temperature for later use. • 5) The cell culture plate was taken out and left to stand at room temperature for 10 min. […] 10 µl of diluted 5HT was add to each experimental well using FLIPR Tetra, and the values were read.
The calcium signal values were determined by FLIPR. The calculated output for each sampling time point in the experiment was the ratio of the 340/510 nm wavelength signals to 380/510 nm wavelength signals. The maximum minus minimum calculation was derived from the ratio signal curve. The percent inhibition rate and ten-point concentration data were fitted to the parametric nonlinear logistic equation by using GraphPad prism to calculate the IC50 values of the compound.

[3] = Pharmacokinetic assay in Balb/c mice (plasma and brain tissue); type: in vivo; settings: male, mouse, po, p.o. 5 mg/kg; for AUC(0-t): read-out: Area under curve AUC0-t; for Tmax: read-out: Peak time tmax; for Cmax: read-out: Plasma concentration Cmax
Method: Balb/c mice were used as test animals. The pharmacokinetic behavior in mouse body (plasma and brain tissue) of the compounds of Examples of the present invention was studied at an oral administration dose of 5 mg/kg.
Compounds of the Examples of the present invention, prepared by the applicant.
Male Balb/c mice (12 mice per group), purchased from Shanghai Jiesijie Laboratory Animal Co., LTD, with Certificate No.: SCXK (Shanghai) 2013-0006 N0.311620400001794.
The test compound was dissolved in 0.5% CMC-Na (1% Tween80) by sonication to formulate a clear solution or homogeneous suspension.
After an overnight fast, male Balb/c mice (12 mice per group) were administered p.o. with the test compound at an administration dose of 5 mg/kg and an administration volume of 10 mL/kg.
0.2 mL of blood was taken from the heart of the mouse before administration and at 1, 2, 4, 8 and 24 hours after administration, and the mice were sacrificed with CO2. The samples were stored in EDTA-K2 tubes, and centrifuged for 6 minutes at 4°C, 6000 rpm to separate the plasma. The plasma samples were stored at -80°C. Whole brain tissue was taken out, weighed, placed in a 2 mL centrifuge tube, and stored at -80°C.
• 1) 160 µL of acetonitrile was added to 40 µL of the plasma sample for precipitation, and then the mixture was centrifuged for 5 to 20 minutes at 3500 × g. • 2) 90 µL of acetonitrile containing internal standard (100 ng/mL) was added to 30 µL of the plasma and brain homogenate sample for precipitation, and then the mixture was centrifuged for 8 minutes at 13000 rpm. • 3) 70 µL of water was added to 70 µL of the treated supernatant and mixed by vortex for 10 minutes. 20 µL of the supernatant was taken to analyze the concentration of the test compound by LC/MS/MS. LC/MS/MS analytical instrument: AB Sciex API 4000 Qtrap.
• Liquid chromatography condition: Shimadzu LC-20AD pump • Chromatographic column: Agilent ZORBAX XDB-C18 (50×2.1 mm, 3.5 µm); Mobile phase: Eluent A was 0.1% formic acid in water, and Eluent B was acetonitrile • Flow rate: 0.4 mL/min • Elution time: 0-4.0 minutes, the eluent is as follows:
The main parameters of pharmacokinetics were calculated by WinNonlin 6.1. Table 17: Experimental results of pharmacokinetic assay in mice

[4] = Solubility of hydrochloride and free base in different media (37°C, 24 hours, HPLC); type: physicochemical; settings: thermodynamic from solid
Method: The glass bottle was shaken overnight on an electrothermal constant temperature shaking tank, and the temperature was set to 37°C. After 24 hours, the sample solution was filtered with a 0.45 µm mixed water fiber filter membrane, and the subsequent filtrate was taken to test its content by HPLC. HPLC detection methods are described in "Stability Study Conditions". Table 24 Solubility of hydrochloride and free base in different pH buffers

T1 sequence (P35462 whole entry): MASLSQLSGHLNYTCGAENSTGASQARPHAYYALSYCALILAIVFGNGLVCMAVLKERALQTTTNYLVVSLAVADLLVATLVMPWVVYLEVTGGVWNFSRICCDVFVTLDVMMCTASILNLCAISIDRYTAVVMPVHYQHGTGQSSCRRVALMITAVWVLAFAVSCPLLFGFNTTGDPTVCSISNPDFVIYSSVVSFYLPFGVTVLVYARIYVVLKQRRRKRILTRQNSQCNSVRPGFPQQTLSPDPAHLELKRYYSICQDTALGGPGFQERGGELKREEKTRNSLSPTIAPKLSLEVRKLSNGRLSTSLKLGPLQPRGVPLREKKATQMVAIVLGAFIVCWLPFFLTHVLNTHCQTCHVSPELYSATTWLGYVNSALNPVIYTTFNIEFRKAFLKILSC
Chain of 5-HT2A receptor (P28223 whole entry): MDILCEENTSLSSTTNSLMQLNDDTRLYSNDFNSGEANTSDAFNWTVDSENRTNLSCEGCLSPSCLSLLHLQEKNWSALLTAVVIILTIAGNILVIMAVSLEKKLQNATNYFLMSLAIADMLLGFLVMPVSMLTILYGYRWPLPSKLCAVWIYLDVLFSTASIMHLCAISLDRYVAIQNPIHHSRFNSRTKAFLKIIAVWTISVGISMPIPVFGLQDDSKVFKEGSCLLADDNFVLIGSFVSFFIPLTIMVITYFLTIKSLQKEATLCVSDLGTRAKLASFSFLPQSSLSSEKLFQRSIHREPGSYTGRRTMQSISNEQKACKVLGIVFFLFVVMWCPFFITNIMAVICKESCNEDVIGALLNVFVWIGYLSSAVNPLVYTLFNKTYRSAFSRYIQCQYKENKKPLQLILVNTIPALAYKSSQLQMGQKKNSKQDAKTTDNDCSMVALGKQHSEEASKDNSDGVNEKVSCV

EC50 [1] [nM] | IC50 [2] [nM] | SMILES | further results
1.7 | 8.06 | O=C(NC1CC(CCN2CCN(c3cccc(Cl)c3Cl)CC2)C1)c1ccno1 (stereo not drawn) [Example 15, N-(3-(2-(4-(2,3-Dichlorophenyl)piperazin-1-yl)ethyl)cyclobutyl)isoxazole-5-carboxamide] | 
0.7 | 5.78 | Cc1ncc(C(=O)NC2CC(CCN3CCN(c4cccc(Cl)c4Cl)CC3)C2)o1 (stereo not drawn) [Example 16, N-(3-(2-(4-(2,3-Dichlorophenyl)piperazin-1-yl)ethyl)cyclobutyl)-2-methyloxazole-5-carboxamide] | 
1.2 | 8.9 | Cc1cc(CC(=O)NC2CC(CCN3CCN(c4cccc(Cl)c4Cl)CC3)C2)on1 (stereo not drawn) [Example 10, N-(3-(2-(4-(2,3-Dichlorophenyl)piperazin-1-yl)ethyl)cyclobutyl)-2-(3-methylisoxazol-5-yl)acetamide] | 
3.1 | 8.92 | O=C(NC1CC(CCN2CCN(c3cccc(Cl)c3Cl)CC2)C1)c1ccon1 (stereo not drawn) [Example 17, N-(3-(2-(4-(2,3-Dichlorophenyl)piperazin-1-yl)ethyl)cyclobutyl)isoxazole-3-carboxamide] | 
3.5 | 8.08 | Cc1ccc(C(=O)NC2CC(CCN3CCN(c4cccc(Cl)c4Cl)CC3)C2)o1 (stereo not drawn) [Example 1, N-(3-(2-(4-(2,3-Dichlorophenyl)piperazin-1-yl)ethyl)cyclobutyl)-5-methylfuran-2-c arboxamide] | 
1.2 | 13.4 | Cc1cc(C(=O)NC2CC(CCN3CCN(c4cccc(Cl)c4Cl)CC3)C2)on1 (stereo not drawn) [Example 14, N-(3-(2-(4-(2,3-Dichlorophenyl)piperazin-1-yl)ethyl)cyclobutyl)-3-methylisoxazole-5-carboxamide] | 
3.4 | 10.9 | Cc1cnoc1C(=O)NC1CC(CCN2CCN(c3cccc(Cl)c3Cl)CC2)C1 (stereo not drawn) [Example 13, N-(3-(2-(4-(2,3-Dichlorophenyl)piperazin-1-yl)ethyl)cyclobutyl)-4-methylisoxazole-5-carboxamide] | 
3.9 | 6.4 | Cc1nc(C(=O)NC2CC(CCN3CCN(c4cccc(Cl)c4Cl)CC3)C2)co1 (stereo not drawn) [Example 18, N-(3-(2-(4-(2,3-Dichlorophenyl)piperazin-1-yl)ethyl)cyclobutyl)-2-methyloxazole-4-carboxamide] | 

Continued, molecule first:

SMILES | EC50 [1] [nM] | IC50 [2] [nM] | further results
COC1CN(C(=O)NC2CC(CCN3CCN(c4cccc(Cl)c4Cl)CC3)C2)C1 (stereo not drawn) [Example 5, N-(3-(2-(4-(2,3-Dichlorophenyl)piperazin-1-yl)ethyl)cyclobutyl)-3-methoxyazetidine-1-carboxamide] | 2.4 | 22.1 | 
O=C(NC1CC(CCN2CCN(c3cccc(Cl)c3Cl)CC2)C1)C1(O)CC1 (stereo not drawn) [Example 6, N-(3-(2-(4-(2,3-Dichlorophenyl)piperazin-1-yl)ethyl)cyclobutyl)-1-hydroxycyclopro pane-1-carboxamide] | 2.9 | 13.1 | AUC(0-t) ([3]; Brain): 1970 ng·h/mL; Tmax ([3]; Brain): 1 h; Cmax ([3]; Brain): 464 ng/mL; AUC(0-t) ([3]; Plasma): 2330 ng·h/mL; AUC(0-inf) ([3]; Plasma, read-out: Area under curve AUC0-∞): 2460 ng·h/mL; MRT ([3]; Plasma, read-out: Average residence time MRT): 2.8 h; half-life ([3]; Plasma, read-out: Half life t1/2 (converted)): 1.9 h; Tmax ([3]; Plasma): 0.5 h; Cmax ([3]; Plasma): 865 ng/mL
O=C(NC1CC(CCN2CCN(c3cccc(Cl)c3Cl)CC2)C1)c1cccc2ncccc12 (stereo not drawn) [Example 19, N-(3-(2-(4-(2,3-Dichlorophenyl)piperazin-1-yl)ethyl)cyclobutyl)quinoline-5-carbox amide] | 1 | 7.37 | 
N#CC1(C(=O)NC2CC(CCN3CCN(c4cccc(Cl)c4Cl)CC3)C2)CC1 (stereo not drawn) [Example 21, 1-Cyano-N-(3-(2-(4-(2,3-dichlorophenyl)piperazin-1-yl)ethyl)cyclobutyl)cyclopropane-1-carboxamide] | 3.3 | 33.5 | 
O=C(N[C@H]1C[C@H](CCN2CCN(c3cccc(Cl)c3Cl)CC2)C1)c1ncco1 [crystal form B of free base] |  |  | solubility at 24 h ([4]; aqueous buffer, Buffer pH 3): > 1000 µg/mL; solubility at 24 h ([4]; aqueous buffer, Buffer pH 4): > 1000 µg/mL; solubility at 24 h ([4]; aqueous buffer, Buffer pH 5): > 1000 µg/mL; solubility at 24 h ([4]; aqueous buffer, Buffer pH 6): 388 µg/mL (≈ 917 µM); solubility at 24 h ([4]; aqueous buffer, Buffer pH 7): 44 µg/mL (≈ 104 µM); solubility at 24 h ([4]; aqueous buffer, Buffer pH 8): 2 µg/mL (≈ 4.72 µM); solubility at 24 h ([4]; fassgf or other biorelevant, FaSSCoF): > 1000 µg/mL; solubility at 24 h ([4]; fassgf or other biorelevant, FaSSGF): 154 µg/mL (≈ 364 µM); solubility at 24 h ([4]; fassgf or other biorelevant, FeSSCoF): > 1000 µg/mL; solubility at 24 h ([4]; simulated gastric fluid, Buffer pH 1): > 1000 µg/mL; solubility at 24 h ([4]; simulated gastric fluid, Buffer pH 2): > 1000 µg/mL; solubility at 24 h ([4]; FaSSIF): > 1000 µg/mL; solubility at 24 h ([4]; FeSSIF): > 1000 µg/mL; solubility at 24 h ([4]; water, H2O): 125 µg/mL (≈ 295 µM)
O=C(NC1CC(CCN2CCN(c3cccc(Cl)c3Cl)CC2)C1)c1cccnc1 (stereo not drawn) [Example 3, N-(3-(2-(4-(2,3-Dichlorophenyl)piperazin-1-yl)ethyl)cyclobutyl)nicotinamide] | 1.2 | 48 | 
COCC(=O)NC1CC(CCN2CCN(c3cccc(Cl)c3Cl)CC2)C1 (stereo not drawn) [Example 2, N-(3-(2-(4-(2,3-Dichlorophenyl)piperazin-1-yl)ethyl)cyclobutyl)-2-methoxyacetamide] | 2.2 | 16.7 | 
